Reference: the NIST ThermoML archive (doi:10.1016/j.jct.2011.12.030)

Settings: Liquid, Vibrating tube method

COCC[N+]1(C)CCCC1.O=S(=O)([N-]S(=O)(=O)C(F)(F)F)C(F)(F)F
mass density [kg/m3]
Settings | 100 kPa | 1000 kPa | 10000 kPa | 20000 kPa | 40000 kPa | 60000 kPa | 80000 kPa | 100000 kPa | 120000 kPa
278.15 K | 1474.2 | 1474.9 | 1480.8 | 1487 | 1498.6 | 1509.5 | 1519.8 | 1529.3 | 1538.3
298.15 K | 1453.5 | 1454.1 | 1460.2 | 1466.9 | 1479.2 | 1490.6 | 1501.4 | 1511.4 | 1520.9
313.15 K | 1439.1 | 1440.1 | 1446.5 | 1453.5 | 1466.4 | 1478.4 | 1489.4 | 1499.8 | 1509.6
333.15 K | 1420.8 | 1421.6 | 1428.5 | 1435.9 | 1449.5 | 1462.2 | 1473.7 | 1484.6 | 1494.8
348.15 K | 1407.3 | 1408 | 1415.4 | 1423.2 | 1437.5 | 1450.5 | 1462.5 | 1473.6 | 1484.2
373.15 K | 1385.3 | 1385.7 | 1393.4 | 1401.8 | 1417.2 | 1430.9 | 1443.5 | 1455.2 | 1466.3
398.15 K | 1363.2 | 1363.3 | 1372 | 1381 | 1397.4 | 1412 | 1425.4 | 1437.9 | 1449.6

CCOS(=O)(=O)[O-].CCn1cc[n+](C)c1 [1-ethyl-3-methylimidazolium ethyl sulfate]
mass density [kg/m3]
Settings | 100 kPa | 1000 kPa | 10000 kPa | 20000 kPa | 40000 kPa | 60000 kPa | 80000 kPa | 100000 kPa | 120000 kPa
278.15 K | 1251.9 | 1252.2 | 1255.7 | 1259.5 | 1266.8 | 1273.7 | 1280.2 | 1286.5 | 1292.2
298.15 K | 1237 | 1237.3 | 1241 | 1245 | 1252.6 | 1259.7 | 1266.5 | 1273.1 | 1279.3
313.15 K | 1226.6 | 1227 | 1230.8 | 1235 | 1242.8 | 1250.3 | 1257.3 | 1264.1 | 1270.5
333.15 K | 1213 | 1213.4 | 1217.4 | 1221.7 | 1230 | 1237.8 | 1245.2 | 1252.3 | 1259.1
348.15 K | 1203.1 | 1203.6 | 1207.7 | 1212.3 | 1220.9 | 1228.9 | 1236.5 | 1243.8 | 1250.8
373.15 K | 1187.3 | 1187.3 | 1191.8 | 1196.6 | 1205.8 | 1214.2 | 1222.2 | 1229.7 | 1237
398.15 K | 1171.4 | 1171 | 1175.9 | 1181 | 1190.7 | 1199.7 | 1208.1 | 1216 | 1223.4
